Laboratory results: the NIST ThermoML archive (doi:10.1016/j.jct.2013.08.021)
± gives the expanded uncertainty stated by the source.

How the values were obtained:
[1] = 101 kPa, Liquid; for speed of sound: Sing-around technique in a fixed-path interferometer; for mass density: Vibrating tube method
[2] = refractive index (Na D-line) (dimensionless); conditions: 101.33 kPa, Liquid, Standard Abbe refractometry
[3] = xn = mol fraction of the nth substance listed; conditions: 101 kPa, Liquid, x1 = 1; for speed of sound: Sing-around technique in a fixed-path interferometer; for mass density: Vibrating tube method
[4] = refractive index (Na D-line) (dimensionless); xn = mol fraction of the nth substance listed; conditions: 101 kPa, Liquid, Standard Abbe refractometry, x1 = 1

Work on `CCO` [ethanol] yielded a speed of sound ([1]; 298.15 K) of 1143.9 ± 1.1 m/s, a mass density ([1]; 298.15 K) of 785.48 ± 0.15 kg/m3 and a speed of sound ([1]; 303.15 K) of 1128 ± 1.1 m/s. For the same compound, the mass density ([1]; 303.15 K) was 781.16 ± 0.15 kg/m3, the speed of sound ([1]; 308.15 K) was 1111.8 ± 1.1 m/s and the mass density ([1]; 308.15 K) was 776.81 ± 0.15 kg/m3. It also gave a refractive index ([2]; 298.15 K) of 1.35932 ± 0.00031, a refractive index ([2]; 303.15 K) of 1.35728 ± 0.00031 and a refractive index ([2]; 308.15 K) of 1.35519 ± 0.00031.
For `CCO` [ethanol] + CCC[N+]1(C)CCCC1.O=S(=O)([N-]S(=O)(=O)C(F)(F)F)C(F)(F)F, the speed of sound ([3]; 298.15 K) was 1143.9 ± 1.1 m/s, the mass density ([3]; 298.15 K) was 785.48 ± 0.15 kg/m3 and the speed of sound ([3]; 303.15 K) was 1128 ± 1.1 m/s. It also gave a mass density ([3]; 303.15 K) of 781.16 ± 0.15 kg/m3, a speed of sound ([3]; 308.15 K) of 1111.8 ± 1.1 m/s and a mass density ([3]; 308.15 K) of 776.81 ± 0.15 kg/m3. For the same compound, the refractive index ([4]; 298.15 K) was 1.35932 ± 0.00031, the refractive index ([4]; 303.15 K) was 1.35728 ± 0.00031 and the refractive index ([4]; 308.15 K) was 1.35519 ± 0.00031.
With `CO` [methanol] the speed of sound ([1]; 298.15 K) was 1102.7 ± 1.1 m/s, the mass density ([1]; 298.15 K) was 786.66 ± 0.15 kg/m3 and the speed of sound ([1]; 303.15 K) was 1086.3 ± 1.1 m/s. It also gave a mass density ([1]; 303.15 K) of 781.95 ± 0.15 kg/m3, a speed of sound ([1]; 308.15 K) of 1070.1 ± 1.1 m/s and a mass density ([1]; 308.15 K) of 777.2 ± 0.15 kg/m3. For the same compound, the refractive index ([2]; 298.15 K) was 1.3265 ± 0.00031, the refractive index ([2]; 303.15 K) was 1.32452 ± 0.00031 and the refractive index ([2]; 308.15 K) was 1.32254 ± 0.00031.
Compound `CO` [methanol] + CCC[N+]1(C)CCCC1.O=S(=O)([N-]S(=O)(=O)C(F)(F)F)C(F)(F)F has a speed of sound ([3]; 298.15 K) of 1102.7 ± 1.1 m/s, a mass density ([3]; 298.15 K) of 786.66 ± 0.15 kg/m3 and a speed of sound ([3]; 303.15 K) of 1086.3 ± 1.1 m/s. It also gave a mass density ([3]; 303.15 K) of 781.95 ± 0.15 kg/m3, a speed of sound ([3]; 308.15 K) of 1070.1 ± 1.1 m/s and a mass density ([3]; 308.15 K) of 777.2 ± 0.15 kg/m3. For the same compound, the refractive index ([4]; 298.15 K) was 1.3265 ± 0.00031, the refractive index ([4]; 303.15 K) was 1.32452 ± 0.00031 and the refractive index ([4]; 308.15 K) was 1.32254 ± 0.00031.
`CCCO` [propan-1-ol] gave a speed of sound ([1]; 298.15 K) of 1206.6 ± 1.2 m/s, a mass density ([1]; 298.15 K) of 799.87 ± 0.14 kg/m3 and a speed of sound ([1]; 303.15 K) of 1189.5 ± 1.2 m/s. The mass density ([1]; 303.15 K) was 795.94 ± 0.14 kg/m3, the speed of sound ([1]; 308.15 K) was 1172.4 ± 1.2 m/s and the mass density ([1]; 308.15 K) was 791.78 ± 0.15 kg/m3. The refractive index ([2]; 298.15 K) was 1.38309 ± 0.00031, the refractive index ([2]; 303.15 K) was 1.38106 ± 0.00031 and the refractive index ([2]; 308.15 K) was 1.37894 ± 0.00031.
Compound `CCCO` [propan-1-ol] + CCC[N+]1(C)CCCC1.O=S(=O)([N-]S(=O)(=O)C(F)(F)F)C(F)(F)F has a speed of sound ([3]; 298.15 K) of 1206.6 ± 1.2 m/s, a mass density ([3]; 298.15 K) of 799.87 ± 0.14 kg/m3 and a speed of sound ([3]; 303.15 K) of 1189.5 ± 1.2 m/s. It also gave a mass density ([3]; 303.15 K) of 795.94 ± 0.14 kg/m3, a speed of sound ([3]; 308.15 K) of 1172.4 ± 1.2 m/s and a mass density ([3]; 308.15 K) of 791.78 ± 0.15 kg/m3. It also gave a refractive index ([4]; 298.15 K) of 1.38309 ± 0.00031, a refractive index ([4]; 303.15 K) of 1.38106 ± 0.00031 and a refractive index ([4]; 308.15 K) of 1.37894 ± 0.00031.
